Like-named read-outs stand apart in the source and are kept apart here.
Biological target: T1, pSTAT3 (pY705-STAT3) (Homo sapiens, UniProt P40763)
T1 construct: host or cells: cryopreserved PBMC
Assay: MSD-pSTAT-PBMC Assay (pSTAT3, IL-6 stimulated)
Type: cell-based
Source text: Cryopreserved Peripheral Blood Mononuclear Cells (PBMC) are from AllCells. Recombinant Human IL-4 and IL-6 are from Peprotech. Mouse monoclonal anti-STAT3 antibody, rabbit monoclonal anti-pY705-STAT3 antibody, rabbit monoclonal Anti-pY641-STAT6 antibody, and lysis buffer are from Cell Signaling Technology (CST). Mouse monoclonal anti-STAT6 antibody is from BioLegend. Assay plates, blocker, and anti-rabbit secondary antibody are from Meso Scale Discovery (MSD).
Cryopreserved PBMCs were thawed out and allowed to recover overnight in IMDM+10% heat-inactivated FBS prior to plating 50,000 (STAT3) or 25,000 (STAT6) cells per well in 96-well U-bottom tissue culture plates. Cells were treated with compound for 3 hrs, then stimulated with 10 ng/mL IL-6 (STAT3) or 1 ng/mL IL-4 (STAT6) for 10 min. Cells were then spun down and washed with ice-cold PBS prior to lysing the cell pellet with 1× lysis buffer (CST) with 1× HALT protease and phosphatase inhibitor cocktail (Thermo). Lysates were transferred to and incubated overnight at 4° C. with shaking in QuickPlex 96-well high bind assay plates (MSD) pre-coated overnight with 30 μL per well of 0.6 μg/mL mouse monoclonal anti-STAT3 antibody (STAT3) or 2 μg/mL mouse monoclonal anti-STAT6 antibody (STAT6) in 1×PBS, and pre-blocked for 1 hour with 3% Blocker-A (MSD). Captured protein in the assay plates were then washed and probed with 25 μL per well of 0.25 μg/ml rabbit monoclonal anti-pY705-STAT3 antibody (STAT3) or 0.18 μg/ml rabbit monoclonal Anti-pY641-STAT6 antibody (STAT6) in 1% Blocker-A for 1 hour at room temperature with shaking, then washed and probed with 25 ul per well of 1 ug/mi Sulfo-TAG Labeled Goat Anti-Rabbit Antibody (MSD) in 1% Blocker-A for 1 hour at room temperature with shaking. Assay plates were then washed and 150 μL of 1× Read Buffer-T (MSD) was added to each well prior to reading on an SQ120 MSD Plate Reader. Assay signal from each sample was subtracted by the signal from unstimulated control wells and normalized to DMSO control wells. IC50 values were calculated using Graph Pad Prism Dose-Response Nonlinear Regression with variable slope. For both pSTAT3 and pSTAT6 A=≤100 nM; B=>100-1000 nM; C=>1000-3000 nM; and D=>3 μM.

[1] = PBMC, compound 3 hrs, then 10 ng/mL IL-6 for 10 min, MSD pY705-STAT3, read-out: pSTAT3

T1 sequence (P40763 whole entry): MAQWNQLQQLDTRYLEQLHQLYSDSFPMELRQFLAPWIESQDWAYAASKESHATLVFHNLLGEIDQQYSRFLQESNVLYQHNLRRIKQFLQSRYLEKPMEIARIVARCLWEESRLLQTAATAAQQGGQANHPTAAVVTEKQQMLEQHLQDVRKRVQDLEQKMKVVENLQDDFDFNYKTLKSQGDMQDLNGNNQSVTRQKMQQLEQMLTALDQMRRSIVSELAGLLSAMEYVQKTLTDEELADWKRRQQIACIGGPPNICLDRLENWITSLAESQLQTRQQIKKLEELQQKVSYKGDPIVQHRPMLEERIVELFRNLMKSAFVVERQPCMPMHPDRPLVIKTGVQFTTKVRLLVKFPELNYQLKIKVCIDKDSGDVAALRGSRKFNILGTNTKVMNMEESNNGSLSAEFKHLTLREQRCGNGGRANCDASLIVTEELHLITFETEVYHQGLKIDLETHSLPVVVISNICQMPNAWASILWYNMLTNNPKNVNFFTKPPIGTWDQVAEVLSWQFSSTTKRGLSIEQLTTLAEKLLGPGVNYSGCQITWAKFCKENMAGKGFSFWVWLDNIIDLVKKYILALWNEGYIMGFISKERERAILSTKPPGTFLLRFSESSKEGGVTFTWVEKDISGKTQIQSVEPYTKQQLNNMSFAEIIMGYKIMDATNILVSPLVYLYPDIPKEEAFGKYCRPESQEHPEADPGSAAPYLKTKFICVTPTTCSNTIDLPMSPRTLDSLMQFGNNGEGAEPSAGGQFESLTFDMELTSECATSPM

O=C(N[C@H]1C[C@@H]2C[C@@H]2C[C@H]2CC[C@@H](C(=O)N3CC(C(=O)N4CCOCC4)C3)N2C1=O)c1cc2cc(C(F)(F)P(=O)(N[C@@H](CCc3ccccc3)C(=O)OCc3ccccc3)Oc3ccccc3)ccc2s1 (stereo partly drawn) [Compound 159, benzyl (2S)-2-(((difluoro(2-(((3S,6S,7aS, 8aR,9aR)-3-(3-(morpholine-4-carbonyl)azetidine-1-carbonyl)-5-oxodecahydro-1H-cyclopropa[d]pyrrolo[1,2-a]azocin-6-yl)carbamoyl)benzo[b]thiophen-5-yl)methyl) (phenoxy)phosphoryl)amino)-4-phenylbutanoate]
IC50: > 3000 nM

CCOC(=O)[C@H](C)NC(=O)OCOP(=O)(Cc1ccc2sc(C(=O)N[C@H]3C[C@@H]4C[C@@H]4C[C@H]4CC[C@@H](C(=O)N5CC(C(=O)N6CCOCC6)C5)N4C3=O)cc2c1)OCOC(=O)N[C@@H](C)C(=O)OCC [Compound 160, diethyl 2,2′-((((((((2-(((3S, 6S,7aS,8aR, 9aR)-3-(3-(morpholine-4-carbonyl)azetidine-1-carbonyl)-5-oxodecahydro-1H-cyclopropa [d]pyrrolo[1,2-a]azocin-6-yl)carbamoyl)benzo[b]thiophen-5-yl)methyl)phosphoryl)bis(oxy))bis(methylene))bis(oxy))bis(carbonate))bis(azanediyl)) (2S,2′S)-dipropionate]
IC50 [1]: > 3000 nM

CC(C)C[C@H](NP(=O)(Oc1ccccc1)C(F)(F)c1ccc2sc(C(=O)N[C@H]3C[C@@H]4C[C@@H]4C[C@H]4CC[C@@H](C(=O)N5CC(C(=O)N6CCOCC6)C5)N4C3=O)cc2c1)C(=O)OCc1ccccc1 (stereo partly drawn) [Compound 163, benzyl ((difluoro(2-(((3S,6S,7aS, 8aR,9aR)-3-(3-(morpholine-4-carbonyl)azetidine-1-carbonyl)-5-oxodecahydro-1H-cyclopropa[d]pyrrolo[1,2-a]azocin-6-yl)carbamoyl)benzo[b]thiophen-5-yl)methyl) (phenoxy)phosphoryl)-L-leucinate]
IC50 [1]: 1000 to 3000 nM

CC(C)CC(=O)SCCOP(=O)(N[C@@H](C)C(=O)OCc1ccccc1)C(F)(F)c1ccc2sc(C(=O)N[C@H]3C[C@@H]4C[C@@H]4C[C@H]4CC[C@@H](C(=O)N5CC(C(=O)N6CCOCC6)C5)N4C3=O)cc2c1 (stereo partly drawn) [Compound 164, benzyl ((difluoro(2-(((3S,6S,7aS, 8aR,9aR)-3-(3-(morpholine-4-carbonyl)azetidine-1-carbonyl)-5-oxodecahydro-1H-cyclopropa [d]pyrrolo[1,2-a]azocin-6-yl)carbamoyl)benzo[b]thiophen-5-yl)methyl)(2-((3-methyl-butanoyl)thio)ethoxy)phosphoryl)-L-alaninate]
IC50 [1]: > 3000 nM

CC(C)OC(=O)[C@H](Cc1ccccc1)OP(=O)(Oc1ccccc1)C(F)(F)c1ccc2sc(C(=O)N[C@H]3C[C@@H]4C[C@@H]4C[C@H]4CC[C@@H](C(=O)N5CC(C(=O)N6CCOCC6)C5)N4C3=O)cc2c1 (stereo partly drawn) [Compound 167, isopropyl (2S)-2-(((difluoro(2-(((3S,6S,7aS, 8aR,9aR)-3-(3-(morpholine-4-carbonyl)azetidine-1-carbonyl)-5-oxodecahydro-1H-cyclopropa[d]pyrrolo[1,2-a]azocin-6-yl)carbamoyl)benzo[b]thiophen-5-yl)methyl) (phenoxy)phosphoryl)oxy)-3-phenyl-propanoate]
IC50 [1]: > 3000 nM

C[C@H](OP(=O)(Oc1ccccc1)C(F)(F)c1ccc2sc(C(=O)N[C@H]3C[C@@H]4C[C@@H]4C[C@H]4CC[C@@H](C(=O)N5CC(C(=O)N6CCOCC6)C5)N4C3=O)cc2c1)C(=O)OCc1ccccc1 (stereo partly drawn) [Compound 174, benzyl (2S)-2-(((difluoro(2-(((3S,6S,7aS, 8aR,9aR)-3-(3-(morpholine-4-carbonyl)azetidine-1-carbonyl)-5-oxodecahydro-1H-cyclopropa[d]pyrrolo[1,2-a]azocin-6-yl)carbamoyl)benzo[b]thiophen-5-yl)methyl) (phenoxy)phosphoryl)oxy) propanoate]
IC50 [1]: 1000 to 3000 nM

CC(C)OC(=O)[C@H](C)NP(=O)(Cc1ccc2sc(C(=O)N[C@H]3C[C@@H]4C[C@@H]4C[C@H]4CC[C@@H](C(=O)N5CC(C(=O)N6CCOCC6)C5)N4C3=O)cc2c1)Oc1ccccc1Cl (stereo partly drawn) [Compound 191, isopropyl ((2-chlorophenoxy) ((2-(((3S,6S, 7aS,8aR,9aR)-3-(3-(morpholine-4-carbonyl)azetidine-1-carbonyl)-5-oxodecahydro-1H-cyclopropa[d]pyrrolo[1,2-a]azocin-6-yl)carbamoyl)benzo[b]thiophen-5-yl)methyl)phosphoryl)-L-alaninate]
IC50 [1]: 100 to 1000 nM

CCOC(=O)[C@H](C)NP(=O)(Oc1ccccc1)C(F)(F)c1ccc2sc(C(=O)N[C@H]3C[C@@H]4C[C@@H]4C[C@H]4CC[C@@H](C(=O)N5CC(C(=O)N6CCOCC6)C5)N4C3=O)cc2c1 (stereo partly drawn) [Compound 192, ethyl ((difluoro(2-(((3S,6S,7aS, 8aR,9aR)-3-(3-(morpholine-4-carbonyl)azetidine-1-carbonyl)-5-oxodecahydro-1H-cyclopropa[d]pyrrolo[1,2-a]azocin-6-yl)carbamoyl)benzo[b]thiophen-5-yl)methyl) (phenoxy)phosphoryl)-L-alaninate]
IC50 [1]: > 3000 nM

CC(C)OC(=O)COP(=O)(Oc1ccccc1)C(F)(F)c1ccc2sc(C(=O)N[C@H]3C[C@@H]4C[C@@H]4C[C@H]4CC[C@@H](C(=O)N5CC(C(=O)N6CCOCC6)C5)N4C3=O)cc2c1 (stereo partly drawn) [Compound 194, isopropyl 2-(((difluoro(2-(((3S,6S,7aS, 8aR,9aR)-3-(3-(morpholine-4-carbonyl)azetidine-1-carbonyl)-5-oxodecahydro-1H-cyclopropa[d]pyrrolo[1,2-a]azocin-6-yl)carbamoyl)benzo[b]thiophen-5-yl)methyl) (phenoxy)phosphoryl)oxy) acetate]
IC50 [1]: 100 to 1000 nM

CC(C)OC(=O)[C@H](C)NP(=O)(Cc1ccc2sc(C(=O)N[C@H]3C[C@@H]4C[C@@H]4C[C@H]4CC[C@@H](C(=O)N5CC(C(=O)N6CCOCC6)C5)N4C3=O)cc2c1)OCC(F)(F)F (stereo partly drawn) [Compound 200, isopropyl (((2-(((3S,6S,7aS, 8aR,9aR)-3-(3-(morpholine-4-carbonyl)azetidine-1-carbonyl)-5-oxodecahydro-1H-cyclopropa [d]pyrrolo[1,2-a]azocin-6-yl)carbamoyl)benzo[b]thiophen-5-yl)methyl) (2,2,2-trifluoroethoxy)phosphoryl)-L-alaninate]
IC50 [1]: 100 to 1000 nM

Cn1cnnc1C1CN(C(=O)[C@@H]2CC[C@@H]3C[C@@H]4C[C@@H]4C[C@H](NC(=O)c4cc5cc(C(F)(F)P(=O)(OCCSC(=O)C(C)(C)C)OCCSC(=O)C(C)(C)C)ccc5s4)C(=O)N32)C1 [Compound 201, S,S′-((((difluoro(2-(((3S,6S,7aR, 8aS,9aR)-3-(3-(4-methyl-4H-1,2,4-triazol-3-yl)azetidine-1-carbonyl)-5-oxodecahydro-1H-cyclopropa[d]pyrrolo[1,2-a]azocin-6-yl)carbamoyl)benzo[b]thiophen-5-yl)methyl)phosphoryl)bis(oxy))bis(ethane-2,1-diyl)) bis(2,2-dimethyl-propanethioate)]
IC50 [1]: < 100 nM

COC(=O)[C@H](C)NP(=O)(Cc1ccc2sc(C(=O)N[C@H]3C[C@@H]4C[C@@H]4C[C@H]4CC[C@@H](C(=O)N5CC(C(=O)N6CCOCC6)C5)N4C3=O)cc2c1)Oc1ccccc1 (stereo partly drawn) [Compound 216, methyl (((2-(((3S,6S,7aS, 8aR,9aR)-3-(3-(morpholine-4-carbonyl)azetidine-1-carbonyl)-5-oxodecahydro-1H-cyclopropa [d]pyrrolo[1,2-a]azocin-6-yl)carbamoyl)benzo[b]thiophen-5-yl)methyl) (phenoxy)phosphoryl)-L-alaninate]
IC50 [1]: 100 to 1000 nM

From patent publication US20250215030A1, “STAT MODULATORS AND USES THEREOF” (Recludix Pharma, Inc., priority 2022, published 2025)
